This note sets out measurements from article PMC7221086, “Trefoil factors share a lectin activity that defines their role in mucus” (Nature Communications, 2020).

For experiment [1], the target named is T1, mTFF3 (human TFF3, monomeric) (Homo sapiens, UniProt Q07654, C78S).
T1 construct: with an N-terminal PelB signal peptide, no interchain Cys, and a C-terminal His6-tag; PelB signal peptide (N, cleaved yes); His6 (C, cleaved yes); made in house; host or cells: E. coli T7 Express, periplasmic extraction
T1 sequence (Q07654 22-80 C78S): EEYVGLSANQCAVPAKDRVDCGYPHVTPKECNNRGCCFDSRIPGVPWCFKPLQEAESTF
Kind of experiment: Isothermal titration calorimetry of glycans against mTFF3. In kind it is binding. The conditions noted are these: ITC, pH 7.4, 25 °C; TFF3. The method, then: (§1) All TFF and ligand stock solutions were prepared in the same buffer (50 mM HEPES, 50 mM NaCl, pH 7.4) and filtered (0.22 µm) just prior to titration. All control and non-binding ligand experiments were performed as 12 × 3.18 µl injections. For experiments with GlcNAc-α-1,4-Gal (Carbosynth), 25 × 1.58 µl injections were used. All runs were performed at 25 °C in a MicroCal iTC200 (Malvern).
(§2) Supplementary Table 2: Parameters used for ITC and thermodynamic terms determined for
(§3) GlcNAc-α-1,4-Gal binding to the TFFs. Data are presented as mean values ±SD for three
(§4) Protein GlcNAc-α- T n Kd ΔH ΔS -TΔS ΔG
(§5) (30 µM) 1,4-Gal (µM) (℃) (µM) (kcal · mol-1) (cal · mol-1 · K-1) (kcal · mol-1) (kcal · mol-1)
On the technique in general: Isothermal titration calorimetry measures the heat released or taken up as one component is titrated into another.

The target of experiment [2] is T2, TFF2 (human TFF2) (Homo sapiens, UniProt Q03403, N38Q).
T2 construct: with an N-terminal gp67 signal peptide and a C-terminal His10-tag; gp67 signal peptide (N, cleaved yes); made in house; host or cells: Sf21 insect cells (baculovirus), secreted
T2 sequence (Q03403 24-129 N38Q): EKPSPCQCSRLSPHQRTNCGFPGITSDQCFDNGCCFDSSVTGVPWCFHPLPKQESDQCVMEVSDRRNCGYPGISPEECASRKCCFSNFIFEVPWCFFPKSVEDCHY
As to the kind of experiment: Isothermal titration calorimetry of glycans against TFF2. The experiment is classed as binding. The conditions noted are these: ITC, pH 7.4, 25 °C; TFF2. The method, then: as §1, §2, §3, §4, §5

Experiment [3] addresses T3, mTFF1 (human TFF1, monomeric) (Homo sapiens, UniProt P04155).
T3 construct: PelB signal peptide (N, cleaved yes); His6 (C, cleaved yes); made in house; host or cells: E. coli T7 Express, periplasmic extraction
T3 sequence (P04155 with tags, fused parts or gaps): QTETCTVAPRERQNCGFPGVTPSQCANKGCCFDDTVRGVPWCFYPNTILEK
Kind of experiment: Isothermal titration calorimetry of glycans against mTFF1. The experiment is classed as binding. The conditions noted are these: ITC, pH 7.4, 25 °C; TFF1. The method, then: as §1, §2, §3, §4, §5

Experiment [4] addresses reduced and alkylated pMucin. As to the kind of experiment: ELISA. The following applies: read off a plot. For orientation: In an ELISA, binding on a coated surface is turned into a signal by an enzyme label.
In experiment [5] the test system is pMucinred+GH89 (pMucinred treated with CpGH89). As to the kind of experiment: TFF-mucin ELISA on pMucinred+GH89. In kind it is binding, porcine. The following applies: immobilised GH89-treated mucin, Strep-HRP detection. The method, then:
(§6) A 50 mg ml^−1 stock of pMucin was prepared by resuspending porcine gastric mucin type III (Sigma) in PBS + 50 mM EDTA + 0.02% NaN3. This pMucin (1 ml) was dialysed (100 kDa NMWL) against 4 M guanidium hydrochloride (2 × 2.0 l) over 48 h at 4 °C. Precipitate was removed by centrifugation (8000×g, 20 min, 4 °C) and the soluble supernatant dialysed (100 kDa NMWL) against PBS (2 × 2.0 l) over 48 h at 4 °C. Half of this sample was treated with 50 µg ml^−1 CpGH89[29] at 30°C for 16 h. Both mucin samples were reduced with 10 mM DTT (30 min, 50 °C) then alkylated by the addition of 30 mM iodoacetamide (30 min, 50 °C). These samples were dialysed (100 kDa NMWL) against PBS (2 × 2.0 l) over 48 h at 4 °C. The concentration of all three mucin stock solutions were standardised to A280 = 1.5 using PBS. These samples were aliquoted, flash frozen in liquid N2 and stored at −80 °C.
(§7) A solution of pMucin, pMucinred or pMucinred+GH89 (100 µl, 1 µg ml^−1) in 100 mM bicarbonate buffer pH 9.4, was added to each well of a 96-well plate (flat-bottom Nunc MaxiSorp, ThermoFisher) and the plate gently nutated for 2 h at 25 °C. The wells were rinsed four times with 200 µl PBS-T (50 mM NaPi pH 7.4, 150 mM NaCl, 0.2% Tween-20) then blocked for 1 h at 25 °C with blocking buffer (50 mM NaPi pH 7.4, 150 mM NaCl, 5% w/v BSA). The wells were rinsed four times with 200 µl PBS-T then incubated with 100 µl blocking buffer containing TFF (various concentrations) and 1:1000 Strep-HRP (ThermoFisher) for 1 h at 25 °C. The wells were rinsed four times with 200 µl PBS-T then developed by adding 100 µl of TMB-Turbo (ThermoFisher) and incubated for 30 min at 25 °C. The reaction was quenched by the addition of 100 µl of 2 M H2SO4. Absorbance at 450 nm was read within 20 min using an EnVision 2105 Multimode Plate Reader (PerkinElmer). Data was analysed using Prism 8 (GraphPad).

Experiment [6] deals with pMucinred (reduced and alkylated pMucin). As to the kind of experiment: TFF-mucin ELISA on pMucinred. The following applies: immobilised pMucinred, Strep-HRP detection. In kind it is binding, porcine. The method, then:
as §6, §7

Experiment [7] concerns pMucin (porcine gastric mucin). Kind of experiment: TFF-mucin ELISA on pMucin. The experiment is classed as binding. The conditions noted are these: immobilised pMucin, Strep-HRP detection. The method, then:
as §6, §7

The target in experiment [8] is commercially-available porcine gastric mucin (porcine).

Where no end group is shown, it is not given here.

With `CC(=O)N[C@H]1[C@@H](Oc2ccc([N+](=O)[O-])cc2)O[C@H](CO)[C@@H](O)[C@@H]1O` [4-nitrophenyl α-D-GlcNAc], the “affinity by ITC” value in experiment [1], in experiment [2] and in experiment [3] was “no detectable affinity” in each case.

Take `CC(=O)N[C@H]1C(O)O[C@H](CO)[C@@H](O)[C@@H]1O` (stereo partly drawn) [D-GlcNAc]: the “affinity by ITC” value in experiment [1], in experiment [2] and in experiment [3] was “no detectable affinity” each time.

On to `OC[C@H]1O[C@H](O[C@@H]2[C@H](O)[C@@H](O)C(O)O[C@@H]2CO)[C@H](O)[C@@H](O)[C@H]1O` (stereo partly drawn) [Gal-α-1,4-Gal], for which the “affinity by ITC” value in experiment [1], in experiment [2] and in experiment [3] was “failed to show any affinity” in each case.

Regarding `CC(=O)N[C@H]1[C@@H](OCc2ccccc2)O[C@H](CO)[C@@H](O)[C@@H]1O` [benzyl α-D-GlcNAc], the “affinity by ITC” value in experiment [1], in experiment [2] and in experiment [3] was “no detectable affinity” each time.

For `OC[C@H]1O[C@H](O[C@H]2[C@H](O)[C@@H](O)[C@H](O)O[C@@H]2CO)[C@H](O)[C@@H](O)[C@@H]1O` [maltose], the “affinity by ITC” value in experiment [1], in experiment [2] and in experiment [3] was “failed to show any affinity” throughout.

On to “biotinylated dimeric TFF1 (from UniProt P04155) N14A”, for which the response (Abs. @ 450 nm) amounted to 0.68 in experiment [4] (25 nM TFF, parent: est. 1.3) and 1 in experiment [4] (1000 nM TFF, parent: est. 1.3).

Regarding “biotinylated dimeric TFF1 (from UniProt P04155) W41A”, the response (Abs. @ 450 nm) in experiment [4] (25 nM TFF, parent: est. 1.3) came to 0.06; in experiment [4] (1000 nM TFF, parent: est. 1.3), 0.045.

For “biotinylated dimeric TFF3 (from UniProt Q07654) D20A”, the response (Abs. @ 450 nm) in experiment [4] (25 nM TFF, parent: est. 1.2) is 0.04; in experiment [4] (1000 nM TFF, parent: est. 1.2) it was 0.095.

In the case of “biotinylated dimeric TFF3 (from UniProt Q07654) W47A”, the response (Abs. @ 450 nm) is 0.035 in experiment [4] (25 nM TFF, parent: est. 1.2) and 0.04 in experiment [4] (1000 nM TFF, parent: est. 1.2).

For the molecule “dTFF1bio: biotinylated dimeric TFF1 construct, wild type ({Avi‑tag(biotin)}-EAQTETCTVAPRERQNCGFPGVTPSQCANKGCCFDDTVRGVPWCFYPNTIDVPPEEECEF; also: homodimer via interchain disulfide, Cys not given here)”, the “binding to pMucinred+GH89 by ELISA” value in experiment [5] is given as “does not bind”.

“dTFF3bio-D20A: biotinylated dimeric TFF3 with D20A mutation ({Avi‑tag(biotin)}-EEYVGLSANQCAVPAKDRVACGYPHVTPKECNNRGCCFDSRIPGVPWCFKPLQEAECTF; also: homodimer via interchain disulfide, Cys not given here)”: the “binding / affinity to pMucinred by ELISA” value in experiment [6] is listed as “barely any detectable affinity”.

Turning to “dTFF3bio-W47A: biotinylated dimeric TFF3 with W47A mutation ({Avi‑tag(biotin)}-EEYVGLSANQCAVPAKDRVDCGYPHVTPKECNNRGCCFDSRIPGVPACFKPLQEAECTF; also: homodimer via interchain disulfide, Cys not given here)”, the “binding / affinity to pMucinred by ELISA” value in experiment [6] is “completely inactive”.

Consider “mTFF1bio: site-selectively biotinylated monomeric TFF1 ({Avi‑tag(biotin)}-EAQTETCTVAPRERQNCGFPGVTPSQCANKGCCFDDTVRGVPWCFYPNTIDVPPEEECEF; also: one free cysteine, interchain disulfide not formed)”, for which the “binding / affinity to pMucinred by ELISA” value in experiment [6] is “robust binding”. The “binding to pMucin by ELISA” value in experiment [7] is “robust binding”. Besides, the “binding to pMucinred+GH89 by ELISA” value in experiment [5] was “no significant binding”.

“mTFF3bio: site-selectively biotinylated monomeric TFF3 ({Avi‑tag(biotin)}-EEYVGLSANQCAVPAKDRVDCGYPHVTPKECNNRGCCFDSRIPGVPWCFKPLQEAECTF; also: one free cysteine, interchain disulfide not formed)”: the “binding / affinity to pMucinred by ELISA” value in experiment [6] is on record as “robust binding”. The “binding to pMucin by ELISA” value in experiment [7] is reported as “robust binding”. Moreover, the “binding to pMucinred+GH89 by ELISA” value in experiment [5] is “no significant binding”.

B1: TFF2bio: biotinylated TFF2, positive control (protein)
chain: EKPSPCQCSRLSPHNRTNCGFPGITSDQCFDNGCCFDSSVTGVPWCFHPLPKQESDQCVMEVSDRRNCGYPGISPEECASRKCCFSNFIFEVPWCFFPKSVEDCHY
modifications: biotin, non-specific (EZ-Link NHS-PEG4-biotin); left off: His10, C-terminal, state not stated
notes: biotinylated TFF2, positive control
With B1, the “binding / affinity to pMucinred by ELISA” value in experiment [6] is listed as “robust binding”. For the same molecule, in experiment [7], the “binding to pMucin by ELISA” value is “robust binding”. Besides, the “binding to pMucinred+GH89 by ELISA” value in experiment [5] is “no significant binding”.

B2: biotinylated dimeric TFF3 (natural protein)
chain: EEYVGLSANQCAVPAKDRVDCGYPHVTPKECNNRGCCFDSRIPGVPWCFKPLQEAECTF
modifications: also: dimer via interchain disulfide, biotin on Avi-tag (BirA), tag not in chain
Regarding B2, the EC50 of the glycoside hydrolase CpGH89 (0-512 nM, 20 h, 30 °C) for liberating bound dTFF3bio from immobilised pMucin, read by ELISA in experiment [8] worked out at 0.4 nM.

B3: biotinylated dimeric TFF1 (natural protein)
chain: EAQTETCTVAPRERQNCGFPGVTPSQCANKGCCFDDTVRGVPWCFYPNTIDVPPEEECEF
modifications: also: dimer via interchain disulfide, biotin on Avi-tag (BirA), tag not in chain
As to B3, the EC50 of the glycoside hydrolase CpGH89 (0-512 nM, 20 h, 30 °C) for liberating bound dTFF1bio from immobilised pMucin, read by ELISA in experiment [8] is 0.8 nM.
